Measured values reported in patent publication US20030133918A1, “Methods for ex vivo propagation of somatic stem cells” (priority 2001, published 2003).

Columns and labels:
bone marrow cells = assay: Non-adherent cell production in long-term bone marrow culture; format: cell-based, mice; settings: Xs 1 mM, medium with 25% horse serum
Method: The non-adherent cell production rate (CPR) is defined as the total number of non-adherent cells produced in a single long-term culture normalized to days of culture (mean=95 days; range=66 to 132) and input cell number (range=5×10^6 to 20×10^6 cells). To develop long-term bone marrow cultures, freshly isolated bone marrow cells from tibia and femurs of 7-12 week-old female C57BL/6J mice were grown in culture medium supplemented with 25% horse serum.

[1] = system: freshly harvested murine bone marrow cells; assay: Bone marrow colony formation in soft agar (fresh bone marrow); format: cell-based
Method: The following numbers of freshly harvested murine bone marrow cells were plated in soft agar in replicates of 6 in 6-well plates: 1×10^5, 5×10^5, or 1×10^6. After 1-3 weeks, type I, II, and III colonies (see FIG. 2 for examples) were enumerated by phase microscopy.
Because of the difficulties anticipated in cloning Xs-dependent cells from heterogenous long-term bone marrow cultures, we decided to adopt a soft agar culture strategy. It is well known that hematopoietic progenitor cells will form colonies when grown in semi-solid medium (Dexter et al., 1984). […] In many bone marrow cell studies, conditions are selected to induce bone marrow cell differentiation. Methyl-cellulose or soft agar supplemented with lineage-promoting growth factors are widely used experimental systems (Dexter et al., 1984). For ideal SACK, we wished to minimize stimuli for differentiation. Therefore, we used agar developed in routine horse serum-supplemented long-term culture medium, without any additional growth factor source, as the gel medium for our studies. We followed procedures developed for detecting anchorage-independent growth of transformed tumor cells.
Given their associated HSC activity, LT-CFCs are predicted to divide with asymmetric cell kinetics. We evaluated whether Xs would increase the frequency of LT-CFC type I colonies in soft agar. Freshly prepared bone marrow cells were plated in soft agar developed in either control medium or medium containing 1 mM or 3 mM Xs.

LT-CFCs = assay: Serial transfer of LT-CFC-derived type I colonies in soft agar; format: cell-based, murine
Method: Type I colonies were isolated from soft agar with either control medium or medium containing Xs (data for 1 mM and 3 mM Xs are combined). Colonies were dispersed and then plated in a single 6-well in soft agar developed with culture medium containing the respective concentration of Xs. After 1-3 weeks, the number and type of secondary colonies were scored by phase microscopy. Bars indicate the mean percent of positive wells for each secondary colony type. Data for the control condition are the means of two independent experiments; data for Xs condition are the means of four independent experiments. We next evaluated whether LT-CFCs which produced type I colonies could be propagated in soft agar. Pasteur pipettes were used to isolate type I colonies from soft agar developed in either control medium or medium containing Xs. Isolated colonies were dispersed and their cells replated in their entirety in a single well of a 6-well plate in soft agar developed with the respective Xs concentration.

Xs-D8 cells = assay: Daughter pair analysis (DPA), BrdU incorporation; format: cell-based, rat; settings: addition of Xs; n=58 pairs; 16% in absence of Xs
Method: The assay is called a “daughter pair analysis” (DPA). To perform the DPA, cells are plated in Xs-containing medium at microcolony density (approximately one cell per 40× microscope field). After allowing 4 to 5 hours for cell adherence, asymmetric cell kinetics are induced by changing to Xs-free medium. After about 16 hours to allow cell divisions to produce “daughter pairs”, the cells are labeled for 4 hours with the thymidine analogue bromodeoxyuridine (BrdU). The cells are then fixed and evaluated for BrdU incorporation by in situ immunofluorescence.
When grown in the absence of Xs, 84% of Xs-D8 BrdU(+) daughter pairs show a single BrdU(+) daughter (n=76 pairs; e.g., FIGS. 3C,F). The BrdU(+) daughter is the cycling stem cell daughter, whereas the BrdU(−) daughter corresponds to a non-cycling transit cell daughter that can undergo differentiation in peptide hydrogels (data not shown). Consistent with its ability to shift cells from asymmetric to exponential kinetics, addition of Xs increases the fraction of double-BrdU(+) Xs-D8 daughter pairs from 16% to 76% (n=58 pairs; e.g., FIGS. 3B,E). […] For 70 scored daughter pairs in Xs-free medium, the frequency of Xs-F1 symmetric pairs was 5 times the frequency of Xs-D8 symmetric pairs.

[2] = system: Rat liver epithelial cells; assay: Clonal derivation of rat liver epithelial cells by limiting dilution in 96-well plates; format: cell-based
Text: Using xanthosine (Xs) as a pharmacological agent to switch tissue stem cells from their default asymmetric cell kinetics program to exponential kinetics, we attempted to derive clonal rat liver epithelial stem cell lines that retained the ability to divide with asymmetric cell kinetics when Xs was removed. Rat liver epithelial cells found in the low-speed supernatant of centrifuged cells from in situ collagenase-perfused livers were clonally-derived by limiting dilution in 96-well plates in the absence or presence of added Xs (200 μM or 400 μM). Colonies with epithelial cell morphology arose with similar efficiency under both conditions (4.1±0.31 percent for both 480 Xs− wells and 960 Xs+ wells). The efficiency of establishing cell strains from these initial colonies was also similar, 50% (3/6) for colonies expanded in Xs-free medium and 65% (11/17) for colonies derived in Xs-containing medium. Each type of cell strain has now been maintained continuously in culture for >80 cell doublings. Early passage cells were cryo-preserved in liquid nitrogen and can be re-established in culture after thawing.

Compound: O=c1[nH]c(=O)c2ncn([C@@H]3O[C@H](CO)[C@@H](O)[C@H]3O)c2[nH]1 [Xs, xanthosine]
- Increase in the rate of production of non-adherent, differentiated cells (bone marrow cells): 80%
- Increase in the frequency of type I colonies ([1]; 1 mM Xs, density of 1×10^5 bone marrow cells per 6-well): 1.5 fold
- Mean fold increase in the frequency of type I colonies ([1]; 1 mM Xs, inputs of 5×10^5 or 1×10^6 cells): 5.3 fold
- Mean fold increase in type I colony formation ([1]; Xs 1 mM and 3 mM, range 1.2 to 6.2, p<0.017): 2.9 fold
- Occurrence of multiple secondary colonies, more common in the presence of Xs (LT-CFCs; presence vs absence of Xs): 5 times
- Cases of multiple secondary colonies that occurred in Xs-containing medium (LT-CFCs; secondary colonies from type I colonies, 1 mM and 3 mM Xs combined): Eighty-three
- Type I colonies more frequent than type II and III colonies (LT-CFCs; secondary colonies in Xs-containing soft agar): 50%
- Efficiency of giving rise to type I secondary colonies versus control type I colonies (LT-CFCs; type I colonies grown in Xs): 4 fold
- Fraction of double-BrdU(+) Xs-D8 daughter pairs (Xs-D8 cells): 76%
- Efficiency with which colonies with epithelial cell morphology arose ([2]; 960 Xs+ wells, added Xs 200 μM or 400 μM, same value for 480 Xs− wells): 4.1±0.31%
- Efficiency of establishing cell strains from initial colonies ([2]; colonies derived in Xs-containing medium (11/17), Xs-free 50% (3/6)): 65%
